Reference: PubChem BioAssay AID1963985 (Molecular Pharmacology Branch, DTP, NCI, 2024)

System: 252836-082-R-J2-PDC tumor spheroids, viability
Test: Anticancer human tumor 252836-082-R-J2-PDC patient-derived head and neck squamous cell carcinoma cell line growth inhibition [PI3K]
Conditions: spheroids with HUVEC and MSC; for viability, T/C: stronger effect = lower value
In short: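 Tumor cells grown as multi-cell spheroids with HUVEC endothelial cells and MSC fibroblast-like stroma were treated with targeted agents combined with inavolisib, alpelisib, duvelisib or copanlisib. Doses fell in half-log steps from near clinical Cmax, else from 10 microM. Viability was measured.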

[1] = curve of first compound, second compound 0.0316 µM
[2] = curve of first compound, second compound 0.1 µM
[3] = curve of first compound, second compound 0.316 µM
[4] = curve of first compound, second compound 1 µM
[5] = curve of first compound, second compound 3.16 µM
[6] = curve of first compound, second compound 10 µM
[7] = second compound 0.0316 µM, first compound 0.0316 µM
[8] = second compound 0.0316 µM, first compound 0.1 µM
[9] = second compound 0.1 µM, first compound 0.0316 µM
[10] = second compound 0.1 µM, first compound 0.1 µM
[11] = second compound 0.316 µM, first compound 0.0316 µM
[12] = second compound 0.316 µM, first compound 0.1 µM
[13] = second compound 1 µM, first compound 0.0316 µM
[14] = second compound 1 µM, first compound 0.1 µM
[15] = second compound 3.16 µM, first compound 0.0316 µM
[16] = second compound 3.16 µM, first compound 0.1 µM
[17] = second compound 10 µM, first compound 0.0316 µM
[18] = second compound 10 µM, first compound 0.1 µM
[19] = second compound 0.0316 µM, first compound 0.316 µM
[20] = second compound 0.0316 µM, first compound 1 µM
[21] = second compound 0.0316 µM, first compound 3.16 µM
[22] = second compound 0.0316 µM, first compound 10 µM
[23] = second compound 0.1 µM, first compound 0.316 µM
[24] = second compound 0.1 µM, first compound 1 µM
[25] = second compound 0.1 µM, first compound 3.16 µM
[26] = second compound 0.1 µM, first compound 10 µM
[27] = second compound 0.316 µM, first compound 0.316 µM
[28] = second compound 0.316 µM, first compound 1 µM
[29] = second compound 0.316 µM, first compound 3.16 µM
[30] = second compound 0.316 µM, first compound 10 µM
[31] = second compound 1 µM, first compound 0.316 µM
[32] = second compound 1 µM, first compound 1 µM
[33] = second compound 1 µM, first compound 3.16 µM
[34] = second compound 1 µM, first compound 10 µM
[35] = second compound 3.16 µM, first compound 0.316 µM
[36] = second compound 3.16 µM, first compound 1 µM
[37] = second compound 3.16 µM, first compound 3.16 µM
[38] = second compound 3.16 µM, first compound 10 µM
[39] = second compound 10 µM, first compound 0.316 µM
[40] = second compound 10 µM, first compound 1 µM
[41] = second compound 10 µM, first compound 3.16 µM
[42] = second compound 10 µM, first compound 10 µM
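Note: spheroids exposed to agents for seven days before readout.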
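Throughout, for viability, T/C: percent of vehicle DMSO control viability so 100% = untreated growth.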

SMILES: CC(=O)c1c(C)c2cnc(Nc3ccc(N4CCNCC4)cn3)nc2n(C2CCCC2)c1=O + Cc1nc(NC(=O)N2CCCC2C(N)=O)sc1-c1ccnc(C(C)(C)C(F)(F)F)c1
- IC50 [1]: > 0.1 µM
- IC50 [2]: > 0.1 µM
- IC50 [3]: > 0.1 µM
- IC50 [4]: > 0.1 µM
- IC50 [5]: < 0.000316 µM
- IC50 [6]: < 0.000316 µM
- viability, T/C (second compound 0.0316 µM, first compound 0.000316 µM): 95.6%
- viability, T/C (second compound 0.0316 µM, first compound 0.001 µM): 83.4%
- viability, T/C (second compound 0.0316 µM, first compound 0.00316 µM): 91.6%
- viability, T/C (second compound 0.0316 µM, first compound 0.01 µM): 79.5%
- viability, T/C [7]: 91.8%
- viability, T/C [8]: 77.7%
- viability, T/C (second compound 0.1 µM, first compound 0.000316 µM): 71.9%
- viability, T/C (second compound 0.1 µM, first compound 0.001 µM): 83.8%
- viability, T/C (second compound 0.1 µM, first compound 0.00316 µM): 85.7%
- viability, T/C (second compound 0.1 µM, first compound 0.01 µM): 76.2%
- viability, T/C [9]: 78.9%
- viability, T/C [10]: 73.7%
- viability, T/C (second compound 0.316 µM, first compound 0.000316 µM): 71.7%
- viability, T/C (second compound 0.316 µM, first compound 0.001 µM): 74.2%
- viability, T/C (second compound 0.316 µM, first compound 0.00316 µM): 80.5%
- viability, T/C (second compound 0.316 µM, first compound 0.01 µM): 65.2%
- viability, T/C [11]: 66.7%
- viability, T/C [12]: 81.5%
- viability, T/C (second compound 1 µM, first compound 0.000316 µM): 62.3%
- viability, T/C (second compound 1 µM, first compound 0.001 µM): 56.3%
- viability, T/C (second compound 1 µM, first compound 0.00316 µM): 52.7%
- viability, T/C (second compound 1 µM, first compound 0.01 µM): 65.6%
- viability, T/C [13]: 64.4%
- viability, T/C [14]: 57.2%
- viability, T/C (second compound 3.16 µM, first compound 0.000316 µM): 46.1%
- viability, T/C (second compound 3.16 µM, first compound 0.001 µM): 45.5%
- viability, T/C (second compound 3.16 µM, first compound 0.00316 µM): 39.2%
- viability, T/C (second compound 3.16 µM, first compound 0.01 µM): 43.9%
- viability, T/C [15]: 48.1%
- viability, T/C [16]: 41.1%
- viability, T/C (second compound 10 µM, first compound 0.000316 µM): 27.9%
- viability, T/C (second compound 10 µM, first compound 0.001 µM): 30.6%
- viability, T/C (second compound 10 µM, first compound 0.00316 µM): 25.9%
- viability, T/C (second compound 10 µM, first compound 0.01 µM): 35.7%
- viability, T/C [17]: 33.3%
- viability, T/C [18]: 38.2%

SMILES: CNC(=O)c1ccc(N2C(=S)N(c3ccc(C#N)c(C(F)(F)F)c3)C(=O)C2(C)C)cc1F + Cc1nc(NC(=O)N2CCCC2C(N)=O)sc1-c1ccnc(C(C)(C)C(F)(F)F)c1
- IC50 [1]: > 10 µM
- IC50 [2]: > 10 µM
- IC50 [3]: > 10 µM
- IC50 [4]: > 10 µM
- IC50 [5]: > 10 µM
- IC50 [6]: < 0.0316 µM
- viability, T/C [7]: 99.5%
- viability, T/C [8]: 93.2%
- viability, T/C [19]: 103%
- viability, T/C [20]: 91%
- viability, T/C [21]: 94.7%
- viability, T/C [22]: 84.8%
- viability, T/C [9]: 87.3%
- viability, T/C [10]: 75.7%
- viability, T/C [23]: 80.8%
- viability, T/C [24]: 86.5%
- viability, T/C [25]: 99.1%
- viability, T/C [26]: 82.1%
- viability, T/C [11]: 68%
- viability, T/C [12]: 72%
- viability, T/C [27]: 82%
- viability, T/C [28]: 83.5%
- viability, T/C [29]: 74.1%
- viability, T/C [30]: 66%
- viability, T/C [13]: 63%
- viability, T/C [14]: 61.8%
- viability, T/C [31]: 51.7%
- viability, T/C [32]: 68.3%
- viability, T/C [33]: 60.8%
- viability, T/C [34]: 54.5%
- viability, T/C [15]: 45.1%
- viability, T/C [16]: 55.9%
- viability, T/C [35]: 49.5%
- viability, T/C [36]: 49.2%
- viability, T/C [37]: 54.3%
- viability, T/C [38]: 46.1%
- viability, T/C [17]: 27.4%
- viability, T/C [18]: 36.2%
- viability, T/C [39]: 33.9%
- viability, T/C [40]: 35.4%
- viability, T/C [41]: 40.3%
- viability, T/C [42]: 35.8%

SMILES: CC(Cn1ccc(-c2ccc(C#N)c(Cl)c2)n1)NC(=O)c1cc(C(C)O)[nH]n1 (stereo not drawn)
- viability, T/C (compound 0.0316 µM): 93.6% [middle of 4 runs]
- viability, T/C (compound 0.1 µM): 88.4% [middle of 4 runs]
- viability, T/C (compound 0.316 µM): 98.8% [middle of 4 runs]
- viability, T/C (compound 1 µM): 97.2% [middle of 4 runs]
- viability, T/C (compound 3.16 µM): 92.5% [middle of 4 runs]
- viability, T/C (compound 10 µM): 91.9% [middle of 4 runs]
- IC50 (curve of compound): > 10 µM

SMILES: CC1(C)CCC(CN2CCN(c3ccc(C(=O)NS(=O)(=O)c4ccc(NCC5CCOCC5)c([N+](=O)[O-])c4)c(Oc4cnc5[nH]ccc5c4)c3)CC2)=C(c2ccc(Cl)cc2)C1 + CC(Nc1ncnc2nc[nH]c12)c1cc2cccc(Cl)c2c(=O)n1-c1ccccc1
- IC50 [1]: > 10 µM
- IC50 [2]: > 10 µM
- IC50 [3]: > 10 µM
- IC50 [4]: > 10 µM
- IC50 [5]: > 10 µM
- IC50 [6]: > 10 µM
- viability, T/C [7]: 96.7%
- viability, T/C [8]: 88.3%
- viability, T/C [19]: 95.9%
- viability, T/C [20]: 93%
- viability, T/C [21]: 87.3%
- viability, T/C [22]: 81.8%
- viability, T/C [9]: 102%
- viability, T/C [10]: 77.1%
- viability, T/C [23]: 79%
- viability, T/C [24]: 99.1%
- viability, T/C [25]: 80.8%
- viability, T/C [26]: 86.7%
- viability, T/C [11]: 92.5%
- viability, T/C [12]: 100%
- viability, T/C [27]: 102%
- viability, T/C [28]: 106%
- viability, T/C [29]: 88.3%
- viability, T/C [30]: 81.6%
- viability, T/C [13]: 81%
- viability, T/C [14]: 89.8%
- viability, T/C [31]: 77.5%
- viability, T/C [32]: 93.8%
- viability, T/C [33]: 92.1%
- viability, T/C [34]: 96%
- viability, T/C [15]: 80.5%
- viability, T/C [16]: 84%
- viability, T/C [35]: 71.8%
- viability, T/C [36]: 81.2%
- viability, T/C [37]: 67%
- viability, T/C [38]: 65.7%
- viability, T/C [17]: 61%
- viability, T/C [18]: 64.3%
- viability, T/C [39]: 68.6%
- viability, T/C [40]: 65.8%
- viability, T/C [41]: 50.4%
- viability, T/C [42]: 55.1%
